This assay has as its system NCI-H1341 complex spheroids, percent test/control. Briefly: Anticancer human tumor NCI-H1341 cell line growth inhibition [AhR].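 On all read-outs here: spheroids exposed to agents for seven days before readout.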 The settings on record: for viability, T/C: stronger effect = lower value. The method, boiled down:
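Spheroids combined tumor cells with HUVEC endothelial cells and human MSCs as stroma. AhR antagonists were paired with standard or investigational drugs, each dosed in half-log steps down from near clinical Cmax, or from 10 microM where Cmax was unknown.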

Setting [1] is: curve of first compound, second compound 0.1 µM.
Where [2] appears, read: curve of first compound, second compound 0.316 µM.
Where [3] appears, read: curve of first compound, second compound 1 µM.
[4] abbreviates: curve of first compound, second compound 3.16 µM.
Setting [5] is: curve of first compound, second compound 10 µM.
Setting [6] is: second compound 0.1 µM, first compound 0.0316 µM.
[7] abbreviates: second compound 0.1 µM, first compound 0.1 µM.
Where [8] appears, read: second compound 0.316 µM, first compound 0.0316 µM.
Setting [9] is: second compound 0.316 µM, first compound 0.1 µM.
[10] abbreviates: second compound 1 µM, first compound 0.0316 µM.
Where [11] appears, read: second compound 1 µM, first compound 0.1 µM.
Setting [12] is: second compound 3.16 µM, first compound 0.0316 µM.
[13] abbreviates: second compound 3.16 µM, first compound 0.1 µM.
The mark [14] stands for this setting: second compound 10 µM, first compound 0.0316 µM.
Where [15] appears, read: second compound 10 µM, first compound 0.1 µM.
Setting [16] is: second compound 0.1 µM, first compound 0.316 µM.
Where [17] appears, read: second compound 0.1 µM, first compound 1 µM.
The mark [18] stands for this setting: second compound 0.1 µM, first compound 3.16 µM.
[19] abbreviates: second compound 0.1 µM, first compound 10 µM.
Setting [20] is: second compound 0.316 µM, first compound 0.316 µM.
Setting [21] is: second compound 0.316 µM, first compound 1 µM.
[22] abbreviates: second compound 0.316 µM, first compound 3.16 µM.
The mark [23] stands for this setting: second compound 0.316 µM, first compound 10 µM.
[24] abbreviates: second compound 1 µM, first compound 0.316 µM.
Where [25] appears, read: second compound 1 µM, first compound 1 µM.
[26] abbreviates: second compound 1 µM, first compound 3.16 µM.
Where [27] appears, read: second compound 1 µM, first compound 10 µM.
Where [28] appears, read: second compound 3.16 µM, first compound 0.316 µM.
[29] abbreviates: second compound 3.16 µM, first compound 1 µM.
Where [30] appears, read: second compound 3.16 µM, first compound 3.16 µM.
Where [31] appears, read: second compound 3.16 µM, first compound 10 µM.
The mark [32] stands for this setting: second compound 10 µM, first compound 0.316 µM.
The mark [33] stands for this setting: second compound 10 µM, first compound 1 µM.
[34] abbreviates: second compound 10 µM, first compound 3.16 µM.
[35] abbreviates: second compound 10 µM, first compound 10 µM.

Experimental findings from PubChem BioAssay AID1919014 (Molecular Pharmacology Branch, DTP, NCI, 2023) are described below.

Where “and” joins values, the source holds several entries; their conditions need not be identical. Equal values may be shown once. Some results are limits rather than exact numbers.

As a reminder, the IC50 is the concentration needed to halve the response being measured. As usually defined, the viability, T/C is the result in the treated group divided by that in the control group, in per cent. For `Cn1ncnc1C1c2n[nH]c(=O)c3cc(F)cc(c23)NC1c1ccc(F)cc1` (stereo not drawn) + Cc1ccccc1N=Nc1ccc(NC(=O)c2ccnn2C)c(C)c1, the 50% inhibitory concentration (IC50) under setting [1] was above 0.1 µM; the IC50 under setting [2] was above 0.1 µM; the IC50 under setting [3] is above 0.1 µM; the 50% inhibitory concentration (IC50) under setting [4] is above 0.1 µM; the IC50 under setting [5] amounted to 0.0701 µM. Further, the viability, T/C reads like this: (second compound 0.1 µM, first compound 0.000316 µM) 112%; (second compound 0.1 µM, first compound 0.001 µM) 105%; (second compound 0.1 µM, first compound 0.00316 µM) 80.9%; (second compound 0.1 µM, first compound 0.01 µM) 86.1%; under setting [6], 95.2%; under setting [7], 90.1%. In addition, the viability, T/C was 89.9% (second compound 0.316 µM, first compound 0.000316 µM); 103% (second compound 0.316 µM, first compound 0.001 µM); 93.6% (second compound 0.316 µM, first compound 0.00316 µM); 101% (second compound 0.316 µM, first compound 0.01 µM); 90.9% under setting [8]; 84.5% under setting [9]. The viability, T/C runs as follows: (second compound 1 µM, first compound 0.000316 µM) 101%; (second compound 1 µM, first compound 0.001 µM) 94.2%; (second compound 1 µM, first compound 0.00316 µM) 80.2%; (second compound 1 µM, first compound 0.01 µM) 88.8%; under setting [10], 84.9%; under setting [11], 59.6%. For the same molecule, the viability, T/C (second compound 3.16 µM, first compound 0.000316 µM) is 75.6%; the viability, T/C (second compound 3.16 µM, first compound 0.001 µM) is 72.5%; the viability, T/C (second compound 3.16 µM, first compound 0.00316 µM) is 83.7%; the viability, T/C (second compound 3.16 µM, first compound 0.01 µM) was 79%; the viability, T/C under setting [12] was 70.5%; the viability, T/C under setting [13] was 54.6%. Also, the viability, T/C is 56.3% (second compound 10 µM, first compound 0.000316 µM); 56.5% (second compound 10 µM, first compound 0.001 µM); 47.7% (second compound 10 µM, first compound 0.00316 µM); 59.9% (second compound 10 µM, first compound 0.01 µM); 58.2% under setting [14]; 41.7% under setting [15].
For the molecule `CC1COCCN1c1cc(C2(S(C)(=N)=O)CC2)nc(-c2ccnc3[nH]ccc23)n1` (stereo not drawn), the viability, T/C is 78.3% and 98.6% and 99.5% (compound 0.0316 µM); 102% and 101% and 88.4% (compound 0.1 µM); 83.1% and 114% and 76.1% (compound 0.316 µM); 96.3% and 75.8% and 66.2% (compound 1 µM); 60.8% and 47.8% and 37.9% (compound 3.16 µM); 23.1% and 30.4% and 20.2% (compound 10 µM). In addition, for the setting “curve of compound”, the IC50 was 4.4 µM and 2.57 µM and 1.91 µM.
`CC(C)c1c(-c2ccccc2)nc2c(C#N)c[nH]n2c1=O` + CC(CO)NC(=O)c1cc(-c2ccc(Cl)cc2)nn(-c2cnn(C)c2)c1=O: the IC50 is, setting by setting: under setting [1], above 10 µM; under setting [2], above 10 µM; under setting [3], above 10 µM; under setting [4], above 10 µM; under setting [5], above 10 µM. Also, the viability, T/C is 85.4% under setting [6]; 89.8% under setting [7]; 78.7% under setting [16]; 82.6% under setting [17]; 101% under setting [18]; 88.4% under setting [19]. In addition, the viability, T/C was 86.8% under setting [8]; 95.6% under setting [9]; 93% under setting [20]; 100% under setting [21]; 86.5% under setting [22]; 73% under setting [23]. The viability, T/C reads like this: under setting [10], 96.1%; under setting [11], 91.2%; under setting [24], 95.6%; under setting [25], 94.5%; under setting [26], 76.2%; under setting [27], 69.5%. In addition, the viability, T/C under setting [12] was 84.5%; the viability, T/C under setting [13] was 99.2%; the viability, T/C under setting [28] was 106%; the viability, T/C under setting [29] is 81.8%; the viability, T/C under setting [30] is 64.5%; the viability, T/C under setting [31] was 79.1%. In addition, the viability, T/C runs as follows: under setting [14], 86.2%; under setting [15], 74.4%; under setting [32], 74.2%; under setting [33], 71.6%; under setting [34], 70.9%; under setting [35], 59.8%.
With `O=C(c1cc(Cc2n[nH]c(=O)c3ccccc23)ccc1F)N1CCN(C(=O)C2CC2)CC1`, the viability, T/C was 97.7% and 93.7% and 111% (compound 0.0316 µM); 100% and 83.7% and 108% (compound 0.1 µM); 105% and 87.7% and 90.6% (compound 0.316 µM); 95.6% and 88% and 110% (compound 1 µM); 102% and 86.6% and 83.1% (compound 3.16 µM); 76.6% and 70.3% and 83.6% (compound 10 µM). For the same molecule, under “curve of compound”, the IC50 is above 10 µM.
In the case of `CC(C)c1c(-c2ccccc2)nc2c(C#N)c[nH]n2c1=O`, the viability, T/C runs as follows: (compound 0.0316 µM) 105% (2×) and 130%; (compound 0.1 µM) 93.4% and 104% and 101%; (compound 0.316 µM) 90% and 98.5% and 101%; (compound 1 µM) 88.2% and 103% and 97.3%; (compound 3.16 µM) 100% and 82.5% and 90.3%; (compound 10 µM) 78% and 92% and 91.9%. Also, the IC50 (curve of compound) is above 10 µM.
On to `CCc1c2c(nc3ccc(O)cc13)-c1cc3c(c(=O)n1C2)COC(=O)[C@]3(O)CC`, for which the viability, T/C runs as follows: (compound 0.000949 µM) 89.8% and 92.6% and 89%; (compound 0.003 µM) 77% and 86.1% and 83.9%; (compound 0.00949 µM) 46.3% and 51.3% and 49.4%; (compound 0.03 µM) 34.4% and 45.9% and 36.6%; (compound 0.0949 µM) 27.4% and 34.4% and 28.5%; (compound 0.3 µM) 13.3% and 18.2% and 17%. The concentration for half-maximal inhibition (IC50) (curve of compound) is 0.0105 µM and 0.0196 µM and 0.0123 µM.
For `O=C(c1cc(Cc2n[nH]c(=O)c3ccccc23)ccc1F)N1CCN(C(=O)C2CC2)CC1` + Cc1ccccc1N=Nc1ccc(NC(=O)c2ccnn2C)c(C)c1, the IC50 is, setting by setting: under setting [1], above 10 µM; under setting [2], above 10 µM; under setting [3], above 10 µM; under setting [4], above 10 µM; under setting [5], above 10 µM. In addition, the viability, T/C reads like this: under setting [6], 94%; under setting [7], 83.4%; under setting [16], 93.9%; under setting [17], 86.4%; under setting [18], 104%; under setting [19], 69.4%. For the same molecule, the viability, T/C under setting [8] is 87.4%; the viability, T/C under setting [9] was 84.5%; the viability, T/C under setting [20] is 97.4%; the viability, T/C under setting [21] is 71.2%; the viability, T/C under setting [22] is 72.8%; the viability, T/C under setting [23] was 59.1%. The viability, T/C was 94.2% under setting [10]; 97.8% under setting [11]; 68.8% under setting [24]; 78.3% under setting [25]; 81.2% under setting [26]; 69.1% under setting [27]. In addition, the viability, T/C runs as follows: under setting [12], 67.6%; under setting [13], 72.1%; under setting [28], 65.7%; under setting [29], 74%; under setting [30], 60.9%; under setting [31], 57.3%. Moreover, the viability, T/C is 46.2% under setting [14]; 50.3% under setting [15]; 56.3% under setting [32]; 58.6% under setting [33]; 51.2% under setting [34]; 47.5% under setting [35].
